In ChEMBL document CHEMBL1201862, “PubChem BioAssay data set” (2004):
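Protocol summary: plate cells (96-well), add compound at 5 concentrations, incubate 48 h, interpolate endpoints linearly. Abbreviation: GI50, concentration required for 50% inhibition of growth.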 The source made the active and inactive calls. No stated cut-off is given here; in the data, active = GI50 up to about 1.1 µM and inactive = higher.

Experiments:
Assay in all cases: NCI tumour cell line growth inhibition, 48 h
[1] = tested on: CCRF-CEM
[2] = tested on: IGROV-1
[3] = tested on: K562
[4] = tested on: LOX IMVI
[5] = tested on: LXFL 529
[6] = tested on: M14
[7] = tested on: NCI-H23
[8] = tested on: OVCAR-4
[9] = tested on: SF-295
[10] = tested on: SK-OV-3
[11] = tested on: SNB-19
[12] = tested on: SNB-75
[13] = tested on: U-251
[14] = tested on: DU-145
[15] = tested on: HOP-92
[16] = tested on: OVCAR-5
[17] = tested on: RPMI-8226
[18] = tested on: SK-MEL-2
[19] = tested on: SR
[20] = tested on: UACC-257

Measured: GI50

Cc1ccc(/C=C2\CCCC\C2=N\O)cc1
inactive: [1] 45.4 µM | [2] 74.5 µM | [3] 41 µM | [4] 58.7 µM | [5] 46.3 µM | [6] > 100 µM | [7] 47.3 µM | [8] 38.8 µM | [9] 74.3 µM | [10] > 100 µM | [11] 53 µM | [12] 26.2 µM | [13] 60.1 µM

COc1ccc2c(-c3ccc(O)cc3)c(Oc3ccc(Cl)cc3)c(=O)oc2c1
inactive: [1] 6.28 µM | [14] 4.2 µM | [15] 7.87 µM | [2] 3.03 µM | [3] 7.21 µM | [4] 11.1 µM | [6] 6.07 µM | [7] 2.79 µM | [8] 5.77 µM | [16] 4.89 µM | [17] 3.99 µM | [9] 6.43 µM | [18] 4.69 µM | [10] 12 µM | [11] 3.89 µM | [12] 13.2 µM | [19] 2.94 µM | [13] 6.15 µM | [20] 8.95 µM

CCOP(=O)(CC1OC(CO)C(O)C1O)OCC (stereo not given)
inactive: [1] > 100 µM | [14] > 100 µM | [15] > 100 µM | [2] > 100 µM | [3] > 100 µM | [4] > 100 µM | [6] > 100 µM | [7] > 46.7 µM | [8] > 100 µM | [16] > 100 µM | [17] > 100 µM | [9] > 100 µM | [18] > 100 µM | [10] > 100 µM | [11] > 100 µM | [12] > 100 µM | [19] > 100 µM | [13] > 100 µM | [20] > 100 µM

c1ccc(-c2c(-c3[nH]c4ccccc4c3-c3ccccc3)[nH]c3ccccc23)cc1
inactive: [1] 3.4 µM | [14] 3.38 µM | [15] 3.21 µM | [2] 4.75 µM | [3] 4.03 µM | [4] 1.92 µM | [6] 3.54 µM | [7] 2.63 µM | [8] 2.17 µM | [16] 11.1 µM | [17] 2.94 µM | [9] 4.18 µM | [18] 8.45 µM | [10] 8.15 µM | [11] 6.5 µM | [12] 4.15 µM | [19] 2.74 µM | [13] 4.52 µM | [20] 12.3 µM

C=C1c2nc3ccccc3n2C=C(c2ccc(OC)cc2)N1c1ccc(OC)cc1
inactive: [1] > 100 µM | [14] 26.9 µM | [15] 15.6 µM | [2] 10.6 µM | [3] > 100 µM | [4] 46.6 µM | [6] 39.8 µM | [7] 21.1 µM | [8] 7.78 µM | [16] 65.5 µM | [17] 29.4 µM | [9] 11.7 µM | [18] 29.3 µM | [10] 16.1 µM | [11] 4.25 µM | [12] 5.61 µM | [19] 12.8 µM | [13] 9.71 µM | [20] 34 µM

O=C(CN1CCCCC1)N1CCc2c([nH]c3ccccc23)C1c1cccnc1 (stereo not given)
inactive: [1] > 100 µM | [15] 34.6 µM | [2] > 100 µM | [3] > 100 µM | [4] > 100 µM | [5] > 100 µM | [6] > 100 µM | [7] > 100 µM | [8] > 100 µM | [16] > 100 µM | [17] > 100 µM | [9] > 100 µM | [10] > 100 µM | [11] > 100 µM | [12] > 100 µM | [13] > 100 µM | [20] > 100 µM

COc1c2c(cc3c1C(O)N1CC[C@]34[C@H]3O[C@H]3[C@H](OC)C[C@@H]14)OCO2 (stereo not given in full)
inactive: [1] 2.38 µM | [14] > 100 µM | [15] > 100 µM | [2] 64.9 µM | [3] 48 µM | [4] 71.4 µM | [6] 85.3 µM | [7] > 100 µM | [8] > 100 µM | [16] > 100 µM | [17] 82 µM | [9] 27.2 µM | [18] 26.4 µM | [10] 24.2 µM | [11] > 100 µM | [12] 86.3 µM | [19] 21.9 µM | [13] > 100 µM | [20] 64.6 µM
